Results reported in the NIST ThermoML archive (doi:10.1021/je800925v).
± gives the expanded uncertainty stated by the source.

How the values were obtained:
[1] = Liquid
[2] = xn = mol fraction of the nth substance listed; settings: Liquid, x1 = 1

| mass density ([1]; 293.15 K) | viscosity ([1]; 293.15 K) | mass density ([1]; 298.15 K) | viscosity ([1]; 298.15 K) | mass density ([2]; 293.15 K) | mass density ([2]; 298.15 K) | viscosity ([2]; 293.15 K) | viscosity ([2]; 298.15 K) | Compound |
| --- | --- | --- | --- | --- | --- | --- | --- | --- |
| 790.2 ± 2.2 kg/m3 | 1.21 ± 0.062 mPa·s | 785.9 ± 2.2 kg/m3 | 1.099 ± 0.059 mPa·s | – | – | – | – | CCO [ethanol] |
| – | – | – | – | 790.2 ± 7.5 kg/m3 | 785.9 ± 7.6 kg/m3 | – | – | CCO [ethanol] + CCCCCCCC |
| 731 ± 2.4 kg/m3 | 0.9133 ± 0.028 mPa·s | 727.2 ± 2.4 kg/m3 | 0.8509 ± 0.027 mPa·s | – | – | – | – | CCCCCCCCCC [decane] |
| 659.8 ± 2.8 kg/m3 | 0.2979 ± 0.038 mPa·s | 655.3 ± 2.8 kg/m3 | 0.2865 ± 0.038 mPa·s | – | – | – | – | CCCCCC [hexane] |
| 705.6 ± 9.5 kg/m3 | 0.5374 ± 0.023 mPa·s | 701.6 ± 9.6 kg/m3 | 0.5087 ± 0.022 mPa·s | – | – | – | – | CCCCCCCC [octane] |
| – | – | – | – | 790.2 ± 2.2 kg/m3 | 785.9 ± 2.2 kg/m3 | 1.21 ± 0.062 mPa·s | 1.099 ± 0.059 mPa·s | CCO [ethanol] + CCCCCC |
